The pKi is −log10 of the Ki, conventionally taken in molar units. Higher therefore signals a low Ki.

The target of one test is Cannabinoid receptor 2 (Mus musculus, UniProt P47936). Description: Compound was tested for its binding affinity against mouse spleen Cannabinoid receptor 2 using [3H]CP-55940 as radioligand. The format is tissue-based.
The target of another test is Cannabinoid receptor 1 (Rattus norvegicus, UniProt P20272). Description: Binding affinity against rat brain Cannabinoid receptor 1 using [3H]CP-55940.
Cannabinoid receptor 1, sequence (P20272 whole entry): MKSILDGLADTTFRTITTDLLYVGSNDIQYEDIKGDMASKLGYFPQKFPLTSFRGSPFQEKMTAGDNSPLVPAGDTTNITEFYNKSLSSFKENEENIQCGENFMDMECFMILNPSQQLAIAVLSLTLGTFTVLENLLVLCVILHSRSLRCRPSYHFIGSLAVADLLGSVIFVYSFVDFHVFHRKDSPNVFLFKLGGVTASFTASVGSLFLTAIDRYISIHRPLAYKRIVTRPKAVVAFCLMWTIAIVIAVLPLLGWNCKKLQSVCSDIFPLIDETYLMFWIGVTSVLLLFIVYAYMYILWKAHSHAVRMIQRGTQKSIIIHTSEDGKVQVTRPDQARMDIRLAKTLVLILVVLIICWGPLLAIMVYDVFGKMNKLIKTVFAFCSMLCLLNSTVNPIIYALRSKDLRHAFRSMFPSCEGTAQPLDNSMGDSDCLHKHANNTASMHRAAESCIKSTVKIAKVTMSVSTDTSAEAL

pKi: −log10 of the molar value.

Cannabinoid receptor 2, sequence (P47936 whole entry): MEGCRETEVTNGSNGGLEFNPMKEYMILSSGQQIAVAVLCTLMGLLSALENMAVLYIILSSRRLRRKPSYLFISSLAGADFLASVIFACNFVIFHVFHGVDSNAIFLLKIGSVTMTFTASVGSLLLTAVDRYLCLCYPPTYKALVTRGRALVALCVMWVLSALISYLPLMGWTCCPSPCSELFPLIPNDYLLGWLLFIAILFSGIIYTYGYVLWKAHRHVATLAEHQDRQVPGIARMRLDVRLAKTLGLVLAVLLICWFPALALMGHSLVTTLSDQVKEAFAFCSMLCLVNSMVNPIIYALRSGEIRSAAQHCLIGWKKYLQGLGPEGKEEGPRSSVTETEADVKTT

On to `CCCCCCC1(c2cc(O)c3c(c2)OC(C)(C)[C@@H]2CC=C(C)C[C@@H]32)SCCCS1`, for which the pKi is 8.44 at Cannabinoid receptor 2 and 8.74 at Cannabinoid receptor 1.

Turning to `CCCCCCC1(c2cc(O)c3c(c2)OC(C)(C)[C@@H]2CC=C(C)C[C@@H]32)SC(C)C(C)S1` (stereo partly drawn), the pKi is 7.71 at Cannabinoid receptor 2 and 7.49 at Cannabinoid receptor 1.

For `CC1=CC[C@@H]2[C@@H](C1)c1c(O)cc(C3SCCS3)cc1OC2(C)C`, the negative logarithm of the Ki (pKi) was 6.99 at Cannabinoid receptor 2 and 6.77 on Cannabinoid receptor 1.

With `CCCCCCC1(c2cc(O)c3c(c2)OC(C)(C)[C@@H]2CC=C(C)C[C@@H]32)OCCO1`, the pKi at Cannabinoid receptor 2 is 9.66; on Cannabinoid receptor 1, 9.28.

Turning to `CCCCCCCc1cc(O)c2c(c1)OC(C)(C)[C@@H]1CC=C(C)C[C@@H]21`, the negative-log Ki (pKi) at Cannabinoid receptor 1 is 7.66.

As for `CCCCCCC1(c2cc(O)c3c(c2)OC(C)(C)[C@@H]2CC=C(C)C[C@@H]32)Sc2ccccc2S1`, the negative-log Ki (pKi) was 6.59 on Cannabinoid receptor 2 and 7.24 at Cannabinoid receptor 1.

As for `CCCCCCC1(c2cc(O)c3c(c2)OC(C)(C)[C@@H]2CC=C(C)C[C@@H]32)CCCC1`, the results for the pKi at Cannabinoid receptor 2 and at Cannabinoid receptor 1 were 8.72 and 9.35, respectively.
